From patent publication US10392367B2, “IRE1 small molecule inhibitors” (QUENTIS THERAPEUTICS, INC., priority 2017, dated 2019) come the findings set out here.

The target of assay [1] is T1, IRE1a (Homo sapiens, UniProt O75460). Briefly: In vitro FRET assay (XBP1 RNA probe cleavage by IRE1a). The conditions noted are these: SignalChem IRE1a protein 2 nM. Type of assay: biochemical. More on the design: purchased SignalChem. The procedure: In vitro FRET assay was performed to evaluate the ability of select compounds to inhibit IRE1, the results of which are summarized in Table 3. To perform the in vitro FRET assay, 1× complete assay buffer (CAB; […] DTT, 50 mM sodium citrate pH 7.15, 1 mM magnesium acetate, 0.02% tween 20) was used to dilute SignalChem IRE1a protein to a final concentration of 2 nM. Selected compounds were serially diluted with DMSO in a non-binding black 384-well plate for a total of 15 ul in each well. 2 ul of the serially diluted compound or DMSO control were then added to new wells containing 98 ul of 1×CAB, for a total volume of 100 ul, 10 ul of which were then transferred to wells of a new plate. 5 ul of the diluted IRE1a was then added to each well. 5 ul of a […] XBP1 RNA probe was then added to each well. Fluorescence was then read over 30 minutes in kinetic mode (485/515 nm).
T1 sequence (O75460 19-977): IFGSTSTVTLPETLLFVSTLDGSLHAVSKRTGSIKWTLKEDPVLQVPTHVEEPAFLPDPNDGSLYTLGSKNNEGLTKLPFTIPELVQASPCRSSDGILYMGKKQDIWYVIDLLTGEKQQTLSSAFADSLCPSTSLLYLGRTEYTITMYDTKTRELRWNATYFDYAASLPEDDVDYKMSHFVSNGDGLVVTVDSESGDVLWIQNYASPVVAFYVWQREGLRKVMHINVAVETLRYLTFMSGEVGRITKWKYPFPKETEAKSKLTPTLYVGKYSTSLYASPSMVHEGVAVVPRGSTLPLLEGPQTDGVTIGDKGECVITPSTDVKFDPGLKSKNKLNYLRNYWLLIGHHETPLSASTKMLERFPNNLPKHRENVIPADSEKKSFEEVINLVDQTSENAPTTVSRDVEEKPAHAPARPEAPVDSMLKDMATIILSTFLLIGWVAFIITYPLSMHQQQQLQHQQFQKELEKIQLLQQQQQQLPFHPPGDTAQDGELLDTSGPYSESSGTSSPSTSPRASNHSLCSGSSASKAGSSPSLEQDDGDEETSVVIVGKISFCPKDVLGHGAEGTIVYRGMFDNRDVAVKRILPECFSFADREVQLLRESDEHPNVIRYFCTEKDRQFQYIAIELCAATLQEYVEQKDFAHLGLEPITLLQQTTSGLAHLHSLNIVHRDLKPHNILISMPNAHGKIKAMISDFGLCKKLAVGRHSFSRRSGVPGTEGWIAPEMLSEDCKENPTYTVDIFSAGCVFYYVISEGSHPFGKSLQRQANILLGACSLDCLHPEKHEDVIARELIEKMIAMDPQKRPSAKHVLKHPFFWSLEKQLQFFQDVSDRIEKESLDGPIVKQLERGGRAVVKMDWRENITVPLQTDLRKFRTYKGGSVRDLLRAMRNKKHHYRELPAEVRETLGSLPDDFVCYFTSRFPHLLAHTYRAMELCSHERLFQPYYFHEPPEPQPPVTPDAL
Two RNA probes were used, XBP1 wildtype (SEQ ID NO: 2) which is able to be spliced by active IRE1a or XBP1 mutant (SEQ ID NO: 3) which is unable to be spliced. Each probe contained a 5′ 6-FAM modification and a 3′ IOWA Black FQ modification.

For assay [2], the target named is T1, IRE1a. The experiment in a line: IRE1a Endoribonuclease Nanoluciferase Assay (XBP1 luciferase reporter in 293 T cells). In kind it is cell-based. The conditions noted are these: 293 T cells transfected with XBP1 luciferase reporter plasmid. The procedure:
Compounds disclosed herein were assessed for disruption of IRE1 signaling using a IRE1a Endoribonuclease Nanoluciferase Assay. Briefly, 2.5×10^6 293 T cells were seeded in a 10 cm^2 tissue culture plate. About 24 hours later, the cells were transfected with Effectene. In a 15 mL Tube, the following was added: 2 μg XBP1 luciferase reporter plasmid (PGK-Luc2-P2A-XBP1u-Nanoluciferase-PEST); 300 μl EC buffer; and 16 μl Enhancer, followed by incubation at room temp for 5 minutes. Next, 60 μl Effectene (Qiagen 301427) was added, followed by incubation at room temperature for 10 minutes. 2.6 mL cDMEM media was added. Old media was aspirated from the cells, followed by addition of 7 mL fresh media. Full transfection mixture was added dropwise to cells. Cells were incubated for 6 hours, followed by tripsinization, centrifugation and resuspension in 11 mL media. 100 uL of cells were plated per a well in a 96 well plate. A day later, stressors of choice+/− inhibitors were added. To harvest, media was aspirated from cells completely, then 50 uL 1× passive lysis buffer (Promega: E1941) was added per well and put on shaker (300 rpm) for 30 minutes at room temperature. Cells were centrifuged, and 15 uL sample per well was added to a new, opaque white 384 well plate (Corning 3570). 15 uL OneGlo (nanoluciferase kit, Promega N1630) was added. Plates were spun down, placed on shaker (300 rpm) for 10 minutes. Plates were read on luminometer, 1000 ms integration time per well. 15 uL Stop and Glo (nanoluciferase kit) was added. Plates were spun down, placed on shaker (300 rpm) for 10 minutes. Plates were read on luminometer, 1000 ms second integration time per well. Recordings are provided below in Table 4.
(A reporter such as luciferase makes a cellular process visible.)

A word on the IC50: it is the concentration at which inhibition is half-maximal. Read a low IC50 as inhibition by little substance. By EC50 is commonly meant the midpoint of the concentration-response curve. The low end stands for higher potency in that assay, the high end for lower potency in that assay.

`CCc1cc(-c2cc(NC(=O)Cc3cc(C(F)(F)F)ccc3C(F)(F)F)nn2C)cc2cnc(N[C@H]3CC[C@H](NC(=O)CN)CC3)nc12` [Compound 44, 2-amino-N-((1r,4r)-4-((6-(3-(2-(2,5-bis(trifluoromethyl)phenyl)acetamido)-1-methyl-1H-pyrazol-5-yl)-8-ethylquinazolin-2-yl)amino)cyclohexyl)acetamide] registered a concentration for half-maximal inhibition (IC50) in assay [1] of 50 to 100 nM. This compound gave an EC50 in assay [2] of 50 to 100 nM.
